Data: US6395467B1 (priority 1998, dated 2002)

What was measured:
[1] = Glass-forming tendency: concentration needed to vitrify (Cv), Q and qv*; assay type: physicochemical; conditions: for Moles of water/mole of CPA (10/Q): pure CPA at Cv; for qv* (Moles of water/mole of polar groups at Cv): pure CPA, Table 1
Text: The qv* method for identifying useful cryoprotectant solutions based on this concentration scale is: to select at least one cryoprotectant whose qv* is below 2.0, include it in a mixture with other cryoprotectants, determine the Cv of the resulting mixture in the normal way (see, for example, Fahy et al, Cryobiology 21: 407-426, 1984), calculate q* at Cv (qv*) (note: the number of moles of water can be readily determined from the weight of a given volume of solution minus the number of grams of all solutes, i.e., from the number of grams of water per unit volume or per unit weight), compare the resulting qv* value to the qv* values of alternative cryoprotectant solutions, and selecting lower qv* value solutions in general preference to higher qv* solutions. qv* values can be estimated adequately from published Q values by estimating that the densities of all solution components as pure substances are unchanged by being in solution with other substances (the validity of a similar approach in deriving Q from % w/v concentrations is discussed in Fahy, in: Low Temperature Biotechnology: Emerging Applications and Engineering Contributions, J.J. McGrath and K. R. Diller, eds, ASME, 1988, pp. 113146.)
“Cv” is the concentration needed to vitrify 5-10 ml of solution at a cooling rate of about 10° C./min.
“qv*=[(#moles of water)/(mole]/[(# polar groups)/(mole cryoprotectant)] or
qv*=(#moles of water per unit volume or per unit mass of solution)/(# moles of polar groups on penetrating cryoprotectants per unit volume or unit mass of solution) at Cv”.

[2] = cited from earlier work; for Q (moles of CPA per 10 moles of water): pure CPA at Cv
rat hepatocytes = assay: Rat hepatocytes in suspension, trypan blue dye exclusion after cryoprotectant exposure or freezing to −140° C.; assay type: cell-based; conditions: 10% v/v
Procedure: A recent freezing experiment compared freezing of rat hepatocytes in suspension to −140° C. in the presence of either 10% v/v DMSO or 10% v/v Veg solutes. Relative to the initial viability, 98% of the Veg-treated, non-frozen hepatocytes were able to exclude trypan blue dye, whereas only 70% of the DMSO-treated, non-frozen hepatocytes retained their dye exclusion capability after addition and removal of DMSO alone. After freezing and thawing, 65% of the initial number of freshly isolated hepatocytes remained capable of excluding trypan blue dye, whereas only 60% of frozen-thawed hepatocytes retained this ability when frozen with DMSO.

rabbit kidney slices = assay: Freezing of rabbit kidney slices to −130° C., K/Na ratio after freezing and thawing; assay type: cell-based; conditions: 30% w/v cryoprotectant, frozen to −130° C.
Procedure: A recent freezing experiment compared freezing of rabbit kidney slices to −130° C. in the presence of either 30% w/v DMSO or 30% w/v Veg solutes. The K/Na ratio after freezing and thawing in DMSO was 2.46+/−0.30, whereas the K/Na ratio after freezing and thawing in 30% w/v Veg solutes was 3.10+/−0.07 (p<0.05).

[3] = system: rabbit renal cortical slices; assay: Toxicity of cryoprotectant solutions to rabbit renal cortical slices (K/Na ratio after exposure, washout and 90 min at 25° C.); assay type: cell-based
Text: FIGS. 1 and 2 display a reanalysis (performed in early July of 1998) of public information (Fahy, Levy, and Ali, Cryobiology 24: 196213, 1987) on the toxicity of several vitrification solutions of known composition. These vitrification solutions will vitrify at 1,000 atmospheres and contain either 6% polyvinyl pyrrolidone of relative molecular mass 40 kDa [PVP K30] or 6% polyethylene glycol [PEG 8000]. The data set is advantageous because all solutions analyzed are vitrifiable, the data set has low standard errors, and toxicity was convincingly dissociated from osmotic factors (see Fahy, Levy, and Ali, 1987, for discussion). In this example, viability was defined by the ratio of primarily intracellular potassium to intracellular sodium (K/Na ratio) after cryoprotectant washout and active metabolism for 90 min at the optimum temperature of 25° C. The test system was rabbit renal cortical slices.
[…] Each step is 20 min except for 1X step, which is 40 min. All steps done at 0° C.

Human sperm = Human sperm freezing and thawing, motility; assay type: cell-based; conditions: 2 M, cryoprotectant not removed
Procedure: Human sperm was exposed to 2 M Veg solutes or 2 M glycerol near 0° C. using gradual addition methods, then frozen, thawed, and videotaped without removing the cryoprotectant.

CC(O)CO (centres unmarked) [1,2-propanediol]
qv* ([1]; pure agent, b117): about 2.6

O=C(CO)CO [1,3-dihydroxyacetone]
Moles of water/mole of CPA (10/Q) [1]: 5 | qv* (Moles of water/mole of polar groups at Cv) [1]: 1.7

OCCCO [1,3-propanediol]
Moles of water/mole of CPA (10/Q) [1]: 3.2 | qv* (Moles of water/mole of polar groups at Cv) [1]: 1.6 | Q (moles of CPA per 10 moles of water) [2]: 3.1 moles of CPA per 10 moles of water

CC(N)=O [Acetamide]
Moles of water/mole of CPA (10/Q) [1]: 2.4 | qv* (Moles of water/mole of polar groups at Cv) [1]: 1.2 | Q (moles of CPA per 10 moles of water) [2]: 4.1 moles of CPA per 10 moles of water

CC(=O)CO [Acetol, hydroxyacetone]
Moles of water/mole of CPA (10/Q) [1]: 2.8 | qv* (Moles of water/mole of polar groups at Cv) [1]: 1.4 | Q (moles of CPA per 10 moles of water) [2]: 3.6 moles of CPA per 10 moles of water

C[S+](C)[O-] [DMSO, dimethyl sulfoxide]
hepatocytes capable of excluding trypan blue dye, of the initial number of freshly isolated hepatocytes (rat hepatocytes; after freezing to −140° C. and thawing): 60% | hepatocytes able to exclude trypan blue dye, relative to the initial viability (rat hepatocytes; non-frozen, after addition and removal): 70% | K/Na ratio after freezing and thawing (rabbit kidney slices): 2.46+/−0.30

OCCO [Ethylene glycol]
Moles of water/mole of CPA (10/Q) [1]: 3.0 | qv* (Moles of water/mole of polar groups at Cv) [1]: 1.4 | Q (moles of CPA per 10 moles of water) [2]: 3.3 moles of CPA per 10 moles of water | recovery (viability, FIG. 3) ([3]; at Cv, EuroCollins vehicle): less than 50% | concentrations not overtly harmful ([3]; in D(1)F-EG mixtures): ≤ 30 % w/v

CNC=O [N-Methyl-Formamide]
Moles of water/mole of CPA (10/Q) [1]: 2.6 | qv* (Moles of water/mole of polar groups at Cv) [1]: 1.3 | Q (moles of CPA per 10 moles of water) [2]: 3.9 moles of CPA per 10 moles of water

NC=O [formamide]
vitrification of aqueous solutions ([2]; agent alone): do not vitrify | maximum concentration associated with minimal injury ([3]; in D(1)F-EG mixtures, 57-58% w/v total): about 14%

OCC(O)CO [glycerol]
sperm motility after freezing and thawing (Human sperm): largely quiescent upon thawing
